From PubChem BioAssay AID248 (DTP/NCI, 2004)
Where “and” joins values, the source holds several entries; their conditions need not be identical. Equal values may be shown once. Inconclusive results and toxic doses are left out.

Tested on: L1210 leukemia ip in BDF1 mice, survival T/C
Experiment: NCI In Vivo Anticancer Drug Screen. Data for tumor model L1210 Leukemia (intraperitoneal) in B6D2F1 (BDF1) mice
Details: endpoint: mean survival time, higher = longer survival
Method in brief: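 Tumor cells were implanted, animals were treated, and survival was followed. The result divides the treated measurement by the vehicle-control measurement.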

[1] = dose: 100.0 mg/kg/injection, schedule: Q01DX009 (ip), vehicle: saline with Tween-80
[2] = dose: 100.0 mg/kg/injection, schedule: Q04DX003 (ip), vehicle: saline with Tween-80
[3] = dose: 200.0 mg/kg/injection, schedule: Q01DX009 (ip), vehicle: saline with Tween-80
[4] = dose: 200.0 mg/kg/injection, schedule: Q04DX003 (ip), vehicle: saline with Tween-80
[5] = dose: 400.0 mg/kg/injection, schedule: Q01DX009 (ip), vehicle: saline with Tween-80
[6] = dose: 400.0 mg/kg/injection, schedule: Q04DX003 (ip), vehicle: saline with Tween-80

## CC1(C)OCC(CO)O1 (stereo not drawn)
[1]
  T/C: 101 % of control
[2]
  T/C: 105 % of control
[3]
  T/C: 98 % of control
[4]
  T/C: 97 % of control
[5]
  T/C: 104 % of control
[6]
  T/C: 100 % of control

## [Cl][Pt+2][Cl].[NH-]CCN1CC1
dose: 50.0 mg/kg/injection, schedule: Q04DX003 (ip), vehicle: saline
  T/C: 122 % of control
dose: 100.0 mg/kg/injection, schedule: Q04DX003 (ip), vehicle: saline
  T/C: 122 % of control

## CC(C)=NNc1ccc([N+](=O)[O-])cc1[N+](=O)[O-]
dose: 50.0 mg/kg/injection, schedule: Q04DX002 (ip), vehicle: Klucel (hydroxypropylcellulose) (HPC)
  T/C: 100 % of control
dose: 100.0 mg/kg/injection, schedule: Q04DX002 (ip), vehicle: Klucel (hydroxypropylcellulose) (HPC)
  T/C: 94 % of control and 107 % of control
dose: 200.0 mg/kg/injection, schedule: Q04DX002 (ip), vehicle: Klucel (hydroxypropylcellulose) (HPC)
  T/C: 102 % of control
dose: 400.0 mg/kg/injection, schedule: Q04DX002 (ip), vehicle: Klucel (hydroxypropylcellulose) (HPC)
  T/C: 100 % of control and 105 % of control

## N#CCCC(C#N)(CCC#N)c1ccc([N+](=O)[O-])cc1
[1]
  T/C: 102 % of control
[2]
  T/C: 98 % of control
[3]
  T/C: 107 % of control
[4]
  T/C: 98 % of control
[5]
  T/C: 98 % of control
[6]
  T/C: 98 % of control

## O=C(NCCc1nc(C(=O)O)cs1)c1ccccc1
dose: 100.0 mg/kg/injection, schedule: Q01DX001 (ip), vehicle: other
  T/C: 98 % of control
dose: 100.0 mg/kg/injection, schedule: Q01DX009 (ip), vehicle: gum acacia
  T/C: 99 % of control
dose: 100.0 mg/kg/injection, schedule: Q04DX003 (ip), vehicle: gum acacia
  T/C: 103 % of control
dose: 200.0 mg/kg/injection, schedule: Q01DX001 (ip), vehicle: other
  T/C: 101 % of control
dose: 200.0 mg/kg/injection, schedule: Q04DX003 (ip), vehicle: gum acacia
  T/C: 98 % of control
dose: 400.0 mg/kg/injection, schedule: Q01DX001 (ip), vehicle: other
  T/C: 102 % of control
dose: 400.0 mg/kg/injection, schedule: Q04DX003 (ip), vehicle: gum acacia
  T/C: 97 % of control

## COc1ccc(NC(=O)N(CCCl)N=O)cc1OC
dose: 0.5 mg/kg/injection, schedule: Q01DX009 (ip), vehicle: Klucel (hydroxypropylcellulose) (HPC)
  T/C: 115 % of control
dose: 1.0 mg/kg/injection, schedule: Q01DX009 (ip), vehicle: Klucel (hydroxypropylcellulose) (HPC)
  T/C: 123 % of control
dose: 1.2 mg/kg/injection, schedule: Q01DX009 (ip), vehicle: Klucel (hydroxypropylcellulose) (HPC)
  T/C: 115 % of control
dose: 1.8 mg/kg/injection, schedule: Q01DX009 (ip), vehicle: Klucel (hydroxypropylcellulose) (HPC)
  T/C: 113 % of control
dose: 2.5 mg/kg/injection, schedule: Q01DX001 (ip), vehicle: carboxymethylcellulose (CMC)
  T/C: 118 % of control
dose: 4.0 mg/kg/injection, schedule: Q01DX009 (ip), vehicle: Klucel (hydroxypropylcellulose) (HPC)
  T/C: 151 % of control and 152 % of control (2×)
dose: 5.0 mg/kg/injection, schedule: Q01DX001 (ip), vehicle: carboxymethylcellulose (CMC)
  T/C: 118 % of control
dose: 6.0 mg/kg/injection, schedule: Q01DX009 (ip), vehicle: Klucel (hydroxypropylcellulose) (HPC)
  T/C: 165 % of control
dose: 6.6 mg/kg/injection, schedule: Q01DX009 (ip), vehicle: carboxymethylcellulose (CMC)
  T/C: 206 % of control
dose: 9.0 mg/kg/injection, schedule: Q01DX009 (ip), vehicle: Klucel (hydroxypropylcellulose) (HPC)
  T/C: 220 % of control
dose: 10.0 mg/kg/injection, schedule: Q01DX009 (ip), vehicle: carboxymethylcellulose (CMC)
  T/C: 123 % of control
dose: 13.0 mg/kg/injection, schedule: Q01DX009 (ip), vehicle: Klucel (hydroxypropylcellulose) (HPC)
  T/C: 167 % of control and 190 % of control
dose: 15.0 mg/kg/injection, schedule: Q01DX001 (ip), vehicle: carboxymethylcellulose (CMC)
  T/C: 168 % of control
dose: 15.0 mg/kg/injection, schedule: Q01DX009 (ip), vehicle: carboxymethylcellulose (CMC)
  T/C: 106 % of control
dose: 20.0 mg/kg/injection, schedule: Q01DX001 (ip), vehicle: other
  T/C: 227 % of control
dose: 20.0 mg/kg/injection, schedule: Q01DX009 (ip), vehicle: Klucel (hydroxypropylcellulose) (HPC)
  T/C: 92 % of control
dose: 30.0 mg/kg/injection, schedule: Q01DX001 (ip), vehicle: carboxymethylcellulose (CMC)
  T/C: 247 % of control
dose: 30.0 mg/kg/injection, schedule: Q01DX001 (ip), vehicle: other
  T/C: 206 % of control
dose: 45.0 mg/kg/injection, schedule: Q01DX001 (ip), vehicle: other
  T/C: 242 % of control
dose: 60.0 mg/kg/injection, schedule: Q01DX001 (ip), vehicle: carboxymethylcellulose (CMC)
  T/C: 193 % of control

## c1cc(-c2ccc(C3=NCCN3)cc2)ccc1C1=NCCN1
dose: 15.0 mg/kg/injection, schedule: Q01DX Z (ip), vehicle: saline
  T/C: 104 % of control
dose: 30.0 mg/kg/injection, schedule: Q01DX Z (ip), vehicle: saline
  T/C: 104 % of control
dose: 60.0 mg/kg/injection, schedule: Q01DX Z (ip), vehicle: saline
  T/C: 87 % of control
